According to patent US20060258739A1, “Dihydrobenzofuran derivatives and uses therof” (Wyeth, priority 2005, published 2006):

Molecular target: T1, human 5-hydroxytryptamine-2C (h5-HT2C) receptor (Homo sapiens, UniProt P28335)
T1 construct: expressed in transfected cells; host or cells: CHO (Chinese Hamster Ovary) cells; membrane preparation
T1 sequence (P28335 33-458): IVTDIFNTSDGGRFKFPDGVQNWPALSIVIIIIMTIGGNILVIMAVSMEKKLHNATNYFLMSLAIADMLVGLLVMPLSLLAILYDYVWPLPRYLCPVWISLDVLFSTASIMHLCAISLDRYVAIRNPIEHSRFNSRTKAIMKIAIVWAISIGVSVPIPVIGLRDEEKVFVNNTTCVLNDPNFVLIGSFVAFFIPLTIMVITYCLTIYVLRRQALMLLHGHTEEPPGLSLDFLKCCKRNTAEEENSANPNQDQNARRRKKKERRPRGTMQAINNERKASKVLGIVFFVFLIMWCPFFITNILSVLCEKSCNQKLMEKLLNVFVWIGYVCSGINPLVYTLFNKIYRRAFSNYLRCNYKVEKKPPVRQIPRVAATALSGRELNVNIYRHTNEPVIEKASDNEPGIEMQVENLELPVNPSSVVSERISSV
Experiment: [125I]DOI radioligand binding to membranes of CHO cells expressing the h5-HT2C receptor

Q: `CSc1ccc2c(c1)C(N1CCN(C)CC1)Cc1ccccc1S2` (centres unmarked) [Methiothepin] was tested. Which Ki (displacement of [125I]DOI, CHO cell membranes, room temperature 60 min, read-out: Ki (95% confidence interval)) did it give?
A: 4.6 nM

Q: Which Kd (read-out: dissociation constant, KD of [125I] DOI, saturation binding with increasing concentrations of [125I]DOI) does the source give for `COc1cc(CC(C)N)c(OC)cc1I` (centres unmarked) [[^125I] DOI] here?
A: 0.4 nM
